We go through 14 molecules from patent US20170355705A1 (GlaxoSmithKline Intellectual Property (No.2) Limited, priority 2014, published 2017).

This experiment addresses T1, SIRT1 (Homo sapiens, UniProt Q96EB6).
T1 sequence (Q96EB6 1-747): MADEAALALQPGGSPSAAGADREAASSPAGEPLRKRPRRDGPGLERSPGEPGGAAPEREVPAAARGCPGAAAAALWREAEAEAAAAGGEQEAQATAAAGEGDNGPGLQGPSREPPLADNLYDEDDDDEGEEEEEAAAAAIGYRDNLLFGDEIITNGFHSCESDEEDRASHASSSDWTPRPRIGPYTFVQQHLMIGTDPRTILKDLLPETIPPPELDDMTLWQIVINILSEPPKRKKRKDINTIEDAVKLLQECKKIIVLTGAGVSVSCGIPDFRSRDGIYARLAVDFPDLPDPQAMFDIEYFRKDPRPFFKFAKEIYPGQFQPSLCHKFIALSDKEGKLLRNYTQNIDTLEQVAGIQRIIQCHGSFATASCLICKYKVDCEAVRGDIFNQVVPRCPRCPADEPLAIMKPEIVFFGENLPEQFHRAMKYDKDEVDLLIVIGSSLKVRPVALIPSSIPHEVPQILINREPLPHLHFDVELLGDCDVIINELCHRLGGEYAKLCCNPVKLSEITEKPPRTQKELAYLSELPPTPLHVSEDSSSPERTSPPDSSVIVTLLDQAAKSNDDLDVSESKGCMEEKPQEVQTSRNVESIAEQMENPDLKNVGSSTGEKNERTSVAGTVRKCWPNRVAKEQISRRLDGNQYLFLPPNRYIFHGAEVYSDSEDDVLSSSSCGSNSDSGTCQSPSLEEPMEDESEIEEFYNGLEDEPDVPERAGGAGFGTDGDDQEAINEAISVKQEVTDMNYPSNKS
Kind of experiment: Trp mass spectrometry assay of SIRT1 activity (EC1.5, percent maximum activation). Format: biochemical. To be noted: Trp mass spectrometry assay; 0.5 μM peptide substrate, 120 μM βNAD+, 10 nM SIRT1, 25 minutes at 25° C. The gist of the method: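 Sirtuin deacetylation was run with purified N-His SIRT1 and the 5TMR Trp peptide across a compound titration, stopped after 25 min by acidification, and analysed by MS for OAADPR. Endpoint lay within the linear range.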

Each structure is given as a SMILES string.

Regarding `Cc1cc(-c2ccc3c(n2)N(C(=O)Nc2nccc(C)n2)[C@H]2CCN3C2)ccn1` [Example 263], the “TRP MAX RESP (percent maximum fold activation)” value is reported as “A (Fold activation ≧150%)”.

Turning to `Cn1ccc(-c2ccc3c(n2)N(C(=O)Nc2cnccn2)[C@H]2CCN3C2)cc1=O` [Example 264], the “TRP MAX RESP (percent maximum fold activation)” value is given as “A (Fold activation ≧150%)”.

With `Cc1cc(-c2ccc3c(n2)N(C(=O)Nc2cc(-c4cnc(C)s4)ccn2)[C@H]2CCN3C2)ccn1` [Example 295], the “TRP MAX RESP (percent maximum fold activation)” value is reported as “A (Fold activation ≧150%)”.

Take `Nc1ccc(-c2ccc3c(n2)N(C(=O)Nc2ccccn2)[C@H]2CCN3C2)cn1` [Example 299]: the “TRP MAX RESP (percent maximum fold activation)” value was “A (Fold activation ≧150%)”.

Consider `CC(C)(CO)COc1cncc(NC(=O)N2c3nc(-c4cccc(C(F)(F)F)c4)ccc3N3CC[C@H]2C3)n1` [Example 304, (4S)-N-(6-(3-hydroxy-2,2-dimethylpropoxy)pyrazin-2-yl)-7-(3-(trifluoromethyl)phenyl)-3,4-dihydro-1,4-methanopyrido[2,3-b][1,4]diazepine-5(2H)-carboxamide], for which the “TRP Activity (EC1.5, concentration of test compound that results in 150% activation of SIRT1)” value is given as “A (EC1.5<1 μM)” and the “TRP MAX RESP (percent maximum fold activation)” value is recorded as “A (Fold activation ≧150%)”.

Take `O=C(Nc1cncc(OCCCO)n1)N1c2nc(-c3cccc(C(F)(F)F)c3)ccc2N2CC[C@H]1C2` [Example 319]: the “TRP MAX RESP (percent maximum fold activation)” value is “A (Fold activation ≧150%)”.

Turning to `CC(C)(CO)COc1nccc(NC(=O)N2c3nc(-c4cccc(C(F)(F)F)c4)ccc3N3CC[C@H]2C3)n1` [Example 321, (4S)-N-(2-(3-hydroxy-2,2-dimethylpropoxy)pyrimidin-4-yl)-7-(3-(trifluoromethyl)phenyl)-3,4-dihydro-1,4-methanopyrido[2,3-b][1,4]diazepine-5(2H)-carboxamide], the “TRP Activity (EC1.5, concentration of test compound that results in 150% activation of SIRT1)” value is listed as “B (EC1.5 1-25 μM)” and the “TRP MAX RESP (percent maximum fold activation)” value is “A (Fold activation ≧150%)”.

`Cc1nn(C)cc1-c1ccnc(NC(=O)N2c3nc(-c4ccnc(C(F)(F)F)c4)ccc3N3CC[C@H]2C3)c1` [Example 324]: the “TRP MAX RESP (percent maximum fold activation)” value is on record as “A (Fold activation ≧150%)”.

In the case of `Cc1cc(-c2ccc3c(n2)N(C(=O)Nc2cc(-c4coc(C)n4)ccn2)[C@H]2CCN3C2)ccn1.Cl` [Example 334, (4S)-N-(4-(2-methyloxazol-4-yl)pyridin-2-yl)-7-(2-methylpyridin-4-yl)-3,4-dihydro-1,4-methanopyrido[2,3-b][1,4]diazepine-5(2H)-carboxamide], the “TRP Activity (EC1.5, concentration of test compound that results in 150% activation of SIRT1)” value was “A (EC1.5<1 μM)” and the “TRP MAX RESP (percent maximum fold activation)” value is “A (Fold activation ≧150%)”.

For the molecule `Cc1cc(-c2ccc3c(n2)N(C(=O)Nc2cc(-n4ccnn4)ccn2)[C@H]2CCN3C2)ccn1` [Example 341], the “TRP MAX RESP (percent maximum fold activation)” value is recorded as “A (Fold activation ≧150%)”.

`Cc1cc(-c2ccc3c(n2)N(C(=O)Nc2nccc(-c4cnc(C)o4)n2)[C@H]2CCN3C2)ccn1` [Example 353]: the “TRP MAX RESP (percent maximum fold activation)” value is reported as “A (Fold activation ≧150%)”.

Take `Cc1cc(-c2ccc3c(n2)N(C(=O)Nc2nccc(-c4cnco4)n2)[C@H]2CCN3C2)ccn1` [Example 355]: the “TRP MAX RESP (percent maximum fold activation)” value is reported as “A (Fold activation ≧150%)”.

Take `Cc1cc(-c2ccc3c(n2)N(C(=O)Nc2cc(N4C[C@@H](C)O[C@@H](C)C4)ccn2)[C@H]2CCN3C2)ccn1` [Example 356]: the “TRP MAX RESP (percent maximum fold activation)” value is reported as “A (Fold activation ≧150%)”.

In the case of `Cc1cc(-c2ccc3c(n2)N(C(=O)Nc2cc(N4C[C@@H](C)O[C@@H](C)C4)ccn2)[C@H]2CCN3C2)ccn1` [Example 357, (4S)-N-(4-((2S,6R)-2,6-dimethylmorpholino)pyridin-2-yl)-7-(2-methylpyridin-4-yl)-3,4-dihydro-1,4-methanopyrido[2,3-b][1,4]diazepine-5(2H)-carboxamide], the “TRP Activity (EC1.5, concentration of test compound that results in 150% activation of SIRT1)” value is on record as “A (EC1.5<1 μM)” and the “TRP MAX RESP (percent maximum fold activation)” value was “A (Fold activation ≧150%)”.
